The record followed here is patent US10271552B2, “Heterocyclic compounds as pesticides” (Bayer CropScience Aktiengesellschaft, priority 2015, dated 2019).

Assay type in all cases: in vivo
For one assay, the system named is Ctenocephalides felis. Description: Ctenocephalides felis in-vitro contact test, adult cat flea. The following applies: 5 μg/cm^2 (=500 g/ha), after 48 hours. As for the experimental part:
Ctenocephalides felis—In-Vitro Contact Tests Adult Cat Flea
9 mg compound is solved in 1 ml acetone and diluted with acetone to the desired concentration. 250 μl of the test solution is filled in 25 ml glass test tubes and homogeneously distributed on the inner walls by rotation and tilting on a shaking device (2 h at 30 rpm). With a compound concentration of 900 ppm, an inner surface of 44.7 cm^2 and a homogeneous distribution, a dose of 5 μg/cm^2 is achieved.
After the solvent has evaporated, each test tube is filled with 5-10 adult cat fleas (Ctenocephalides felis), closed with a perforated lid and incubated in a lying position at room temperature and relative humidity. After 48 hours efficacy is determined. The fleas are patted on the ground of the tubes and are incubated on a heating plate at 45-50° C. for at most 5 minutes. Immotile or uncoordinated moving fleas, which are not able to escape the heat by climbing upwards, are marked as dead or moribund.
An efficacy of 100% means all fleas are dead or moribund; 0% means no fleas are dead or moribund.

For the next assay, the system named is Boophilus microplus. Description: Boophilus microplus injection test. The following applies: 20 μg/animal injected; adult engorged female ticks; after 7 days. As for the experimental part: Boophilus microplus—Injection Test
Solvent: dimethyl sulfoxide
To produce a suitable preparation of active compound, 10 mg of active compound are dissolved in 0.5 ml solvent, and the concentrate is diluted with solvent to the desired concentration.
Five adult engorged female ticks (Boophilus microplus) are injected with 1 μl compound solution into the abdomen. The ticks are transferred into replica plates and incubated in a climate chamber.
After 7 days egg deposition of fertile eggs is monitored. Eggs where fertility is not visible are stored in a climate chamber till hatching after about 42 days. An efficacy of 100% means all eggs are infertile; 0% means all eggs are fertile.

The next assay relates to Meloidogyne incognita. The assay is described as follows: Meloidogyne incognita test. To be noted: 20 ppm; eggs and larvae, salad seeds in sand; after 14 days. As for the experimental part:
Meloidogyne incognita—Test
Solvent: 125.0 parts by weight of acetone
To produce a suitable preparation of active compound, 1 part by weight of active compound is mixed with the stated amount of solvent, and the concentrate is diluted with water to the desired concentration.
Vessels are filled with sand, a solution of the active ingredient, a suspension containing eggs and larvae of the southern root-knot nematode (Meloidogyne incognita) and salad seeds. The salad seeds germinate and the seedlings grow. Galls develop in the roots.
After 14 days the nematicidal activity is determined on the basis of the percentage of gall formation. 100% means no galls were found and 0% means the number of galls found on the roots of the treated plants was equal to that in untreated control plants.

In a further assay the test system is Phaedon cochleariae. The assay is described as follows: Phaedon cochleariae spray test. The following applies: foliar, 168 h, Chinese cabbage leaf disks, larvae, after 7 days. As for the experimental part:
Phaedon cochleariae—Spray Test
(§1) Solvent: 78.0 parts by weight of acetone • • 1.5 parts by weight of dimethylformamide
(§2) Emulsifier: alkylarylpolyglycol ether
(§3) To produce a suitable preparation of active compound, 1 part by weight of active compound is mixed with the stated amount of solvents and is diluted with water, containing an emulsifier concentration of 1000 ppm, to the desired concentration. Further test concentrations are prepared by dilution with emulsifier containing water.
Chinese cabbage (Brassica pekinensis) leaf disks are sprayed with a preparation of the active ingredient of the desired concentration. Once dry, the leaf disks are infested with mustard beetle larvae (Phaedon cochleariae).
After 7 days mortality in % is determined. 100% means all beetle larvae have been killed and 0% means none of the beetle larvae have been killed.

In assay [1] the test system is Nezara viridula. The assay is described as follows: Nezara viridula spray test (solvent 52.5 acetone / 7 dimethylformamide). To be noted: 96 h, barley plants, larvae, after 4 days. As for the experimental part:
(§4) Nezara viridula—Spray Test
Solvent: 52.5 parts by weight of acetone • 7 parts by weight of dimethylformamide
Emulsifier: alkylaryl polyglycolether
To produce a suitable preparation of active compound, 1 part by weight of active compound is mixed with the stated amount of solvent, and the concentrate is diluted with water, containing an emulsifier concentration of 1000 ppm, to the desired concentration. Ammonium salt and/or penetration enhancer in a dosage of 1000 ppm are added to the desired concentration if necessary.
(§5) Barley plants (Hordeum vulgare) infested with larvae of the southern green stink bug (Nezara viridula) are sprayed with a test solution containing the desired concentration of the active ingredient.
(§6) After 4 days mortality in % is determined. 100% means all the stink bugs have been killed; 0% means none of the stink bugs have been killed.

A further assay relates to Diabrotica balteata. The assay is described as follows: Diabrotica balteata spray test. To be noted: 160 μg/well; germinated wheat seeds, larvae; after 7 days. As for the experimental part:
Diabrotica Balteata—Spray Test
as §1, §2
(§7) To produce a suitable preparation of active compound, 1 part by weight of active compound is mixed with the stated amount of solvent, and the concentrate is diluted with water, containing an emulsifier concentration of 1000 ppm, to the desired concentration. Further test concentrations are prepared by dilution with emulsifier containing water.
Soaked wheat seeds (Triticum aestivum) are placed in a multiple well plate filled with agar and some water and are incubated for 1 day to germinate (5 seeds per well). The germinated wheat seeds are sprayed with a test solution containing the desired concentration of the active ingredient. Afterwards each unit is infected with 10-20 larvae of the banded cucumber beetle (Diabrotica balteata).
After 7 days efficacy in % is determined. 100% means all the seedlings have grown up like in the untreated, uninfected control; 0% means none of the seedlings have grown.

Assay [2] relates to Nezara viridula. The assay is described as follows: Nezara viridula spray test (solvent 78.0 acetone / 1.5 dimethylformamide). The following applies: 96 h, barley plants, larvae, after 4 days. As for the experimental part: as §4, §1, §2, §7, §5, §6
The next assay deals with Tetranychus urticae. The assay is described as follows: Tetranychus urticae spray test OP-resistant. To be noted: foliar, 144 h, French bean leaf disks, all instars, after 6 days. As for the experimental part: Tetranychus urticae—Spray Test OP-Resistant
Solvent: 78.0 parts by weight acetone • 1.5 parts by weight dimethylformamide
as §2, §3
French bean (Phaseolus vulgaris) leaf disks infected with all instars of the two spotted spidermite (Tetranychus urticae), are sprayed with a preparation of the active ingredient of the desired concentration.
After 6 days mortality in % is determined. 100% means all spider mites have been killed and 0% means none of the spider mites have been killed.

Turning to `O=C(Nc1nc(-c2c(F)cccc2F)ns1)c1ccccc1C(F)(F)F` [Compound I-1-4], the “efficacy (fleas dead or moribund)” value in the assay on Ctenocephalides felis stood at 100%. Moreover, in the assay on Boophilus microplus, the “efficacy (infertile eggs)” value was determined as 100%. Further, in the assay on Meloidogyne incognita, the “nematicidal activity (gall formation)” value was found to be 90%. For the compound `CCc1ncccc1C(=O)Nc1nc(-c2c(F)cccc2F)ns1` [Compound I-1-36, N-[3-(2,6-Difluorophenyl)-1,2,4-thiadiazol-5-yl]-2-ethylnicotinamide], the “nematicidal activity (gall formation)” value in the assay on Meloidogyne incognita was 100%. Moreover, the mortality (usually the percentage killed) at 500 g/ha with Phaedon cochleariae is at least 80%.

`O=C(Nc1nc(-c2cccnc2Cl)ns1)c1ccccc1C(F)(F)F` [Compound I-3-1, N-[3-(2-Chloropyridin-3-yl)-1,2,4-thiadiazol-5-yl]-2-(trifluoromethyl)benzamide]: the mortality at 500 g/ha was at least 80% with Phaedon cochleariae and at least 90% in the assay on Nezara viridula [1]. `N#Cc1cccc(C#N)c1-c1nsc(NC(=O)c2cccnc2C(F)(F)F)n1` [Compound I-1-78, N-[3-(2,6-Dicyanophenyl)-1,2,4-thiadiazol-5-yl]-2-(trifluoromethyl)nicotinamide] displayed a mortality at 500 g/ha with Phaedon cochleariae of at least 80%. On to `O=C(Nc1nc(-c2c(F)cccc2F)ns1)C1=C(C(F)F)OCCS1` [Compound I-1-39], for which the “nematicidal activity (gall formation)” value with Meloidogyne incognita is on record as 70%. Regarding `O=C(Nc1nc(-c2ccccc2F)ns1)c1ccccc1C(F)(F)F` [Compound I-1-73], the “efficacy (seedling growth)” value in the assay on Diabrotica balteata came out at 100%.

As to `CCc1ncccc1C(=O)Nc1nc(-c2ccccc2Cl)ns1` [Compound I-1-48], the “nematicidal activity (gall formation)” value in the assay with Meloidogyne incognita came to 90%.

Take `O=C(Nc1nc(-c2cccc(F)c2C(F)(F)F)ns1)c1cccnc1C(F)(F)F` [Compound I-1-61]: in the assay with Diabrotica balteata, the “efficacy (seedling growth)” value was 80%. Turning to `O=C(Nc1nc(-c2ccccc2Cl)ns1)c1nccnc1C(F)(F)F` [Compound I-1-44], the “efficacy (infertile eggs)” value in the assay with Boophilus microplus stood at 100%. In addition, the “efficacy (seedling growth)” value in the assay with Diabrotica balteata was determined as 100%. As to `O=C(Nc1nc(-c2c(F)cccc2F)ns1)c1ccccc1I` [Compound I-1-8], the “efficacy (infertile eggs)” value with Boophilus microplus was found to be 100%. For `O=C(Nc1nc(-c2ccccc2OC(F)(F)F)ns1)c1ccccc1C(F)(F)F` [Compound I-1-70, N-{3-[2-(trifluoromethoxy)phenyl]-1,2,4-thiadiazol-5-yl}-2-(trifluoromethyl)benzamide], in the assay with Diabrotica balteata, the “efficacy (seedling growth)” value was 100%. The mortality at 500 g/ha in the assay with Phaedon cochleariae is at least 80%. On to `N#Cc1ccccc1-c1nsc(NC(=O)c2cccnc2C(F)(F)F)n1` [Compound I-1-67, N-[3-(2-Cyanophenyl)-1,2,4-thiadiazol-5-yl]-2-(trifluoromethyl)nicotinamide], for which the mortality at 500 g/ha in the assay with Nezara viridula [1] was at least 90%. As for `O=C(Nc1nc(-c2ccccc2Cl)ns1)c1ccccc1Br` [Compound I-1-21, 2-Bromo-N-[3-(2-chlorophenyl)-1,2,4-thiadiazol-5-yl]benzamide], the values for the mortality at 500 g/ha in the assay on Nezara viridula [2] and with Phaedon cochleariae were at least 90% and at least 80%, respectively. Regarding `Cc1ccccc1-c1nsc(NC(=O)c2cccnc2C(F)(F)F)n1` [Compound I-1-53], the “efficacy (seedling growth)” value with Diabrotica balteata came to 80%.

Compound `CCN(C(=O)c1cccnc1C(F)(F)F)c1nc(-c2c(F)cccc2F)ns1` [Compound I-1-34, N-[3-(2,6-Difluorophenyl)-1,2,4-thiadiazol-5-yl]-N-ethyl-2-(trifluoromethyl)nicotinamide] had a mortality at 500 g/ha with Tetranychus urticae of at least 70%. Regarding `O=C(Nc1nc(-c2c(F)cccc2F)ns1)c1ccccc1Cl` [Compound I-1-3], the “efficacy (infertile eggs)” value in the assay on Boophilus microplus is given as 100%. In the assay on Meloidogyne incognita, the “nematicidal activity (gall formation)” value came to 90%.

With `O=C(Nc1nc(-c2c(F)cccc2F)ns1)c1ccccc1C(F)F` [Compound I-1-9], in the assay on Boophilus microplus, the “efficacy (infertile eggs)” value was determined as 100%. In the assay on Meloidogyne incognita, the “nematicidal activity (gall formation)” value was 70%.

For the compound `O=C(Nc1nc(-c2ccccc2Cl)ns1)c1ccccc1Cl` [Compound I-1-22], in the assay on Boophilus microplus, the “efficacy (infertile eggs)” value is on record as 100%. For the compound `O=C(Nc1nc(-c2c(F)cccc2F)ns1)c1cccnc1C(F)F` [Compound I-1-14], in the assay on Boophilus microplus, the “efficacy (infertile eggs)” value amounted to 100%. For the same compound, the “nematicidal activity (gall formation)” value in the assay with Meloidogyne incognita is 100%. In the case of `O=C(Nc1nc(-c2ccccc2C(F)(F)F)ns1)c1ncccc1C(F)(F)F` [Compound I-1-19], the “efficacy (seedling growth)” value with Diabrotica balteata is given as 100%. In addition, the “nematicidal activity (gall formation)” value in the assay on Meloidogyne incognita was determined as 90%. For `O=C(Nc1nc(-c2c(F)cccc2F)ns1)c1cccc(Cl)c1C(F)(F)F` [Compound I-1-77], the “efficacy (seedling growth)” value in the assay on Diabrotica balteata is 80%.

In turn, `O=C(Nc1nc(-c2ccc(C(F)(F)F)cc2C(F)(F)F)ns1)c1cccnc1C(F)(F)F` [Compound I-1-66, N-{3-[2,4-Bis(trifluoromethyl)phenyl]-1,2,4-thiadiazol-5-yl}-2-(trifluoromethyl)nicotinamide] showed a mortality at 500 g/ha with Nezara viridula [1] of at least 90%. Take `O=C(Nc1nc(-c2ccccc2Cl)ns1)c1cccnc1C(F)(F)F` [Compound I-1-43, N-[3-(2-chlorophenyl)-1,2,4-thiadiazol-5-yl]-2-(trifluoromethyl)nicotinamide]: the mortality at 500 g/ha in the assay on Nezara viridula [2] was at least 90%; with Phaedon cochleariae, at least 80%; with Tetranychus urticae it was at least 70%; in the assay with Nezara viridula [1], at least 90%. Consider `O=C(Nc1nc(-c2c(F)cccc2F)ns1)c1nccnc1C(F)(F)F` [Compound I-1-7], for which the “efficacy (fleas dead or moribund)” value with Ctenocephalides felis came to 100%. Besides, the “efficacy (infertile eggs)” value with Boophilus microplus came to 100%. In the assay on Diabrotica balteata, the “efficacy (seedling growth)” value is 100%. Consider `O=C(Nc1nc(-c2cc(F)ccc2C(F)(F)F)ns1)c1cccnc1C(F)(F)F` [Compound I-1-64], for which, in the assay on Diabrotica balteata, the “efficacy (seedling growth)” value turned out to be 100%. Consider `O=C(Nc1nc(-c2c(F)cccc2F)ns1)c1cccnc1CC(F)(F)F` [Compound I-1-38], for which the “efficacy (seedling growth)” value in the assay with Diabrotica balteata is 80%.

Regarding `O=C(Nc1nc(-c2c(F)cccc2F)ns1)c1ncccc1C(F)(F)F` [Compound I-1-13], the “nematicidal activity (gall formation)” value in the assay with Meloidogyne incognita worked out at 90%. `O=C(Nc1nc(-c2ccccc2C(F)(F)F)ns1)c1ccccc1Br` [Compound I-1-16]: the “nematicidal activity (gall formation)” value in the assay with Meloidogyne incognita was found to be 90%. For `O=C(Nc1nc(-c2c(F)cccc2F)ns1)c1cccnc1Cl` [Compound I-1-29, 2-Chloro-N-[3-(2,6-difluorophenyl)-1,2,4-thiadiazol-5-yl]nicotinamide], the “efficacy (seedling growth)” value with Diabrotica balteata is listed as 80%. In the assay on Meloidogyne incognita, the “nematicidal activity (gall formation)” value was determined as 100%. The mortality at 500 g/ha in the assay on Nezara viridula [2] and in the assay with Nezara viridula [1] was at least 90% in each case.
